One assay relates to primary human B cells. The experiment in a line: B cell activation assay (CD69 on anti-IgM stimulated B cells). To be noted: AUC of dose response curve (10 μM to 1 nM) of CD69 MFI normalized to DMSO control. The class given is cell-based. As for the experimental part: Peripheral blood mononuclear cells (PBMC) were obtained either: 1) by using Ficoll-Paque™ (GE Healthcare) for separation of peripheral blood hematopoietic cells from buffy coats of healthy human donors; or 2) directly from LeukoPak donations. Human primary B cells were isolated from the PBMCs utilizing negative selection with commercial kits following the manufacturer's protocol (StemCells Catalog #17954) to yield >95% CD20+ cells assessed by flow cytometry. Primary human B cells were plated at 0.7-1×10^5 per well in a 96-well plate with Cbl-b inhibitors over a dose ranging from 10 μM to 1 nM and incubated at 37° C. 5% CO2, with a final DMSO concentration of <0.5%. Cells were stimulated with anti-IgM for 20 hours at 37° C. 5% CO2. Surface activation markers on mature CD20^+ IgD^+ B cells were monitored by FACS using an anti-CD69 antibody (BD Biosciences).
Cbl-b inhibitors were tested to determine their ability to induce or enhance surface expression of cell surface markers on B cells (e.g., CD69), which is indicative of B cell activation.
Readouts were reported as area under curve (AUC) of the dose response curve of CD69 mean fluorescence intensity (MFI) normalized to the DMSO control. Baseline for this study was the measurement obtained from primary human B cells treated with DMSO in the presence of 2.5 μg/mL of anti-IgM-F(ab′)2. […] Compounds were ranked into bins according to their readouts as follows: A indicates ≤0.5, B indicates 0.5-1.00, C indicates 1.01-1.50, and D indicates ≥1.51.

The next assay relates to T-cells. The experiment in a line: In vivo activity: CD25 expression on CD4+ or CD8+ T-cells of mice stimulated with anti-CD3 antibody. To be noted: 2 μg anti-CD3 antibody, 24 hours. As for the experimental part: (§1) A method of determining the pharmacodynamic profile of Cbl-b inhibitors was performed by dosing strains of mice with competent immune systems such as C57BL/6 or BALB/c with a Cbl-b inhibitor. The Cbl-b inhibitor was dissolved in a suitable formulation and administered by one of various routes such as intravenous (IV), intraperitoneal (IP), subcutaneous (SC), or oral (PO), at a suitable dose level and frequency (e.g. twice per day BID or thrice per day TID) as informed by prior pharmacokinetic and tolerability studies. Following administration of the Cbl-b inhibitor, T-cells and indirectly other immune cells (e.g. via cytokine production) were stimulated in vivo by administration of an anti-CD3 antibody or antigen-binding fragment thereof in PBS at defined amounts such as 2 μg or 10 μg per animal by routes such as IV or IP (See Hirsh et al., J. Immunol., 1989; Ferran, et al., Eur. J. Immunol., 1990). Additional study control arms included groups of mice treated with a vehicle formulation alone (i.e., formulation without the Cbl-b inhibitor and anti-CD3 antibody), a formulation containing the Cbl-b inhibitor alone, a formulation containing the anti-CD3 antibody alone, PBS alone, or combinations of these agents. The level of immune activation was then assessed by analysis of plasma cytokine levels and/or expression of activation markers on immune cells (e.g. T-cells). Blood or lymphoid organs (e.g. spleen) were collected at defined time points (e.g. 8 hours or 24 hours). Blood samples were processed to collect plasma for determination of cytokine levels using standard methods known in the art. Cytokines measured included IL-2, IFNγ, and TNFα. Additional blood samples and lymphoid tissues were processed for flow cytometric analysis of immune cells (e.g. T-cells) using standard methods to determine expression of cell type-specific markers and activation markers such as CD25 and/or CD69. Augmentation of immune stimulation by Cbl-b inhibitor administration was assessed by comparing the relative concentrations of cytokines in plasma, or the expression levels of activation markers on immune cells between appropriate groups (e.g. mice treated with Cbl-b inhibitor and 2 μg anti-CD3 antibody versus mice treated with vehicle and 2 μg anti-CD3 antibody).
(§2) Cbl-b inhibitors were tested to determine their ability to induce or enhance the level of cytokines (e.g. IL-2, IFNγ, and TNFα) in blood obtained from treated mice stimulated with an anti-CD3 antibody, which is indicative of modulation of the immune response. Cbl-b inhibitors were also tested to determine their ability to induce or enhance the expression of cell surface markers on T-cells (e.g. CD25 and/or CD69) isolated from treated mice stimulated with an anti-CD3 antibody, which is indicative of modulation of the immune response.
(§3) Readouts were reported as fold change over baseline. The fold change was calculated from the mean value of mice treated with Cbl-b inhibitor and 2 μg anti-CD3 antibody, with the baseline defined as the mean value of mice treated with vehicle and 2 μg anti-CD3 antibody. Increases in the percentage of cells with surface expression of CD25 on CD4+ T-cells or CD8+ T-cells greater than 1.5-fold over baseline at 24 hours were considered a positive response. Increases in the plasma concentration of IL-2, IFNγ, and TNFα greater than 1.5-fold over baseline at 8 hours post-stimulation were also considered a positive response (Table 8). Fold changes were ranked into bins according to their readouts as follows: A indicates >2.50, B indicates 2.01-2.50, C indicates 1.51-2.00, D indicates 1.00-1.50, and E indicates <1.00.

For assay [1], the system named is IL-2, IFNγ, and TNFα in plasma. The assay can be described thus: In vivo activity: plasma cytokine levels (IL-2, IFNγ, TNFα) in mice stimulated with anti-CD3 antibody. To be noted: 2 μg anti-CD3 antibody, 8 hours post-stimulation. As for the experimental part: as §1, §2, §3
Assay [2] deals with T1, Cbl-b (Homo sapiens, UniProt Q13191). The experiment in a line: Cbl-b activity assay (Cbl-b inhibition assay), TR-FRET of Cbl-b interaction with UbcH5B-Ub. In kind it is biochemical. To be noted: assay buffer with 100 mM NaCl, 60 nM Src kinase; read-out: Cbl-b activity IC50. The method in brief:
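TR-FRET readout of Cbl-b binding to Bodipy-fluorescein N-terminally labeled Ub conjugated to UbcH5B C85K, measured with compound present. After compound incubation, 60 nM Src kinase with 1 mM ATP and 5 mM MgCl2 (final) was added for 1.5 h, then a further 1 h incubation; asterisked values used 50 mM NaCl buffer and 30 nM Src.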
(Time-resolved FRET reads energy transfer from a long-lived donor to a nearby acceptor.)

Assay [3] deals with T1, Cbl-b. The assay can be described thus: Cbl-b inhibition assay (Cbl-b activity assay, FRET, Biological Example 1; 100 mM NaCl, 60 nM Src kinase). The class given is biochemical. To be noted: upper bound stated in text lists; read-out: IC50 values in the Cbl-b inhibition assay of Biological Example 1. The method in brief:
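Here, the E2 UbcH5B, irreversibly linked to Bodipy-fluorescein ubiquitin, binds Cbl-b once Src kinase phosphorylates it; Cbl-b carries an N-terminal biotinylated Avi-tag captured by streptavidin-terbium. An absent FRET signal indicates inhibition.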

A further assay concerns the target Cbl-b (residues 36-427) (Homo sapiens, UniProt Q13191). The experiment in a line: Cbl-b binding assay (SPR, Biacore T200). The note with it: 20° C., 1:1 binding model. The method in brief:
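Affinities derived from global 1:1 steady-state or kinetic fits of double-referenced, solvent-corrected SPR data, 20 °C, NeutrAvidin-capture chip. Compound series (top 100 or 50 μM, 8–10 points) injected 50 s, 90–180 s dissociation. Asterisked values used 50 mM instead of 100 mM NaCl and 30 nM Src kinase.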
A general note: Surface plasmon resonance follows binding to a sensor surface in real time, without labels.

The subject of assay [4] is T-cell. The assay can be described thus: IL-2 secretion from T-cells stimulated with anti-CD3 antibody alone (Biological Example 2). The note with it: 1 μM compound, primary human total T-cells, read-out: IL-2 secretion, Anti-CD3 stimulation, fold change over baseline. In kind it is cell-based.
Assay [5] relates to T-cell. The experiment in a line: CD25 cell surface staining on T-cells co-stimulated with anti-CD3 and anti-CD28 antibody (Biological Example 2). In kind it is cell-based, human. The note with it: Homo sapiens, T-cell, primary human total T-cells, baseline = anti-CD3/anti-CD28 stimulated cells without inhibitor, read-out: CD25 staining, Anti-CD3/Anti-CD28 stimulation, fold change over baseline. The method in brief:
(§4)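 No assay protocol given; T-cells stimulated with anti-CD3 alone or anti-CD3 plus anti-CD28, with or without Cbl-b inhibitor. Activation read as IL-2 secretion or CD25 surface staining, expressed as fold over baseline from uninhibited cells […].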

Assay [6] concerns T-cell. The assay can be described thus: CD25 cell surface staining on T-cells stimulated with anti-CD3 antibody alone (Biological Example 2). In kind it is cell-based. The note with it: 1 μM compound, primary human total T-cells, baseline = anti-CD3/anti-CD28 stimulated cells without inhibitor, read-out: CD25 staining, Anti-CD3 stimulation, fold change over baseline.
Assay [7] deals with T-cell. The assay can be described thus: IL-2 secretion from T-cells co-stimulated with anti-CD3 and anti-CD28 antibody (Biological Example 2). The class given is cell-based, human. To be noted: Homo sapiens, T-cell, primary human total T-cells, baseline = anti-CD3/anti-CD28 stimulated cells without inhibitor, read-out: IL-2 secretion, Anti-CD3/Anti-CD28 stimulation, fold change over baseline. In short, it runs like this:
as §4

Structures are written as SMILES. pIC50, pKd: −log10 of the molar value.

T1 sequence (Q13191 36-427): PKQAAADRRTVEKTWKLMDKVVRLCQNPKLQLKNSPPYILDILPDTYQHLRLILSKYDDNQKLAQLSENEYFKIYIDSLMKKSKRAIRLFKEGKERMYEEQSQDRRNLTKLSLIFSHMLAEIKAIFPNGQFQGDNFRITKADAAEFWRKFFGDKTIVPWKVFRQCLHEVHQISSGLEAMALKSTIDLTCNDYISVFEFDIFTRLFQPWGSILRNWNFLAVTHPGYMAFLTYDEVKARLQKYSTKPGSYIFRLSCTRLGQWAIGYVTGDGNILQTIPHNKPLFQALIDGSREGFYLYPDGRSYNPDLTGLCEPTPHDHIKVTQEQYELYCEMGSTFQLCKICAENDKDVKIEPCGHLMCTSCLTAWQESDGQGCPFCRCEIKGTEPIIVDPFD
Chain of Cbl-b (residues 36-427) (Q13191 36-427): as above

Consider `C[C@H](Sc1nncn1C)c1cccc(NC(=O)c2cccc(C(F)(F)F)n2)c1` [Compound 57a, (S)-N-(3-(1-((4-methyl-4H-1,2,4-triazol-3-yl)thio)ethyl)phenyl)-6-(trifluoromethyl)picolinamide], for which the “CD69 MFI AUC” value in the assay on primary human B cells is on record as “B (B indicates 0.5-1.00)”. Moreover, in the assay with T-cells (90 mpk IP BID), the “CD4+ T-cell % CD25+” value is “D (D indicates 1.00-1.50)” and the “CD8+ T-cell % CD25+” value is recorded as “E (E indicates <1.00)”. In the assay on T-cells (90 mpk IP TID), the “CD4+ T-cell % CD25+” value was “D (D indicates 1.00-1.50)” and the “CD8+ T-cell % CD25+” value is listed as “C (C indicates 1.51-2.00)”. For the same compound, in [1] (90 mpk IP BID), the IFNγ plasma concentration entry was “D (D indicates 1.00-1.50)”, the IL-2 plasma concentration result is given as “A (A indicates >2.50)” and the TNFα plasma concentration result was “A (A indicates >2.50)”. In assay [1] (90 mpk IP TID), the IFNγ plasma concentration result was “B (B indicates 2.01-2.50)”, the IL-2 plasma concentration entry is recorded as “A (A indicates >2.50)” and the TNFα plasma concentration result is reported as “A (A indicates >2.50)”.

In the case of `C[C@@H](Cc1nncn1C)c1cccc(N2Cc3c(cccc3C(F)(F)F)C2=O)c1` [Compound 255b], the negative logarithm of the IC50 (pIC50) (commonly −log10 of the IC50, conventionally taken in molar units) at Cbl-b [2] is 5.52 to 6.00; on Cbl-b [3] it was no less than 5.00. Also, the “CD4+ T-cell % CD25+” value with T-cells (135 mpk PO BID) and in the assay with T-cells (180 mpk PO BID) was “E (E indicates <1.00)” each time. The “CD8+ T-cell % CD25+” value in the assay on T-cells (135 mpk PO BID) and in the assay on T-cells (180 mpk PO BID) was “E (E indicates <1.00)” each time. The pKd (usually the Kd on a negative log10 scale, so that one unit is a factor of ten) on Cbl-b (residues 36-427) is 5.00 to 5.52.

Consider `Cn1cnnc1CC1(c2cccc(N3Cc4c(cc(CN5CCC(F)CC5)cc4C(F)(F)F)C3=O)c2)COC1` [Compound 489, 6-[(4-fluoropiperidin-1-yl)methyl]-2-(3-{3-[(4-methyl-1,2,4-triazol-3-yl)methyl]oxetan-3-yl}phenyl)-4-(trifluoromethyl)-3H-isoindol-1-one], for which the pIC50 on Cbl-b [2] was greater than 7.00; on Cbl-b [3], no less than 7.00. Moreover, the “CD4+ T-cell % CD25+” value in the assay with T-cells (135 mpk PO BID) is recorded as “C (C indicates 1.51-2.00)”. In the assay with T-cells (135 mpk PO BID), the “CD8+ T-cell % CD25+” value is given as “D (D indicates 1.00-1.50)”.

On to `Cn1cnnc1CC1(c2cccc(N3Cc4c(cc(CN5CC[C@H](F)C5)cc4C4CC4)C3=O)c2)COC1` [Example 554, (S)-4-cyclopropyl-6-((3-fluoropyrrolidin-1-yl)methyl)-2-(3-(3-((4-methyl-4H-1,2,4-triazol-3-yl)methyl)oxetan-3-yl)phenyl)isoindolin-1-one], for which the negative-log IC50 (pIC50) on Cbl-b [2] was greater than 7.00; at Cbl-b [3] it was no less than 7.00. Further, the fold induction at 1 µM in the assay on T-cell [4] was 0.151 to 0.2; in the assay with T-cell [5] (1 μM compound) it was 1.31 to 1.5; with T-cell [6], greater than 1; in the assay on T-cell [7] (1 μM compound), greater than 7.5. Further, the fold induction at 0.3 µM with T-cell [5] (0.3 μM compound) was 1.31 to 1.5; in the assay on T-cell [7] (0.3 μM compound) it was greater than 7.5. The pKd on Cbl-b (residues 36-427) was greater than 7.00.

Turning to `C[C@@H](c1cc2c(c(C(F)(F)F)c1)CN(c1cccc(C3(Cc4nncn4C)COC3)c1)C2=O)N1CCC(F)CC1` [Example 622a, (S)-6-(1-(4-fluoropiperidin-1-yl)ethyl)-2-(3-(3-((4-methyl-4H-1,2,4-triazol-3-yl)methyl)oxetan-3-yl)phenyl)-4-(trifluoromethyl)isoindolin-1-one], in the assay with T-cells (135 mpk PO BID), the “CD4+ T-cell % CD25+” value is “B (B indicates 2.01-2.50)” and the “CD8+ T-cell % CD25+” value is given as “D (D indicates 1.00-1.50)”.

As to `C[C@H](c1cc2c(c(C(F)(F)F)c1)CN(c1cccc(C3(Cc4nncn4C)COC3)c1)C2=O)N1CCC(F)CC1` [Example 622b, (R)-6-(1-(4-fluoropiperidin-1-yl)ethyl)-2-(3-(3-((4-methyl-4H-1,2,4-triazol-3-yl)methyl)oxetan-3-yl)phenyl)-4-(trifluoromethyl)isoindolin-1-one], in the assay with T-cells (135 mpk PO BID), the “CD4+ T-cell % CD25+” value is reported as “B (B indicates 2.01-2.50)” and the “CD8+ T-cell % CD25+” value is recorded as “D (D indicates 1.00-1.50)”.

The values are drawn from patent US20220324835A1 (Nurix Therapeutics, Inc., priority 2018, published 2022).
